The source made the active and inactive calls.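 Rule for the calls: active = caspase luminescence falls with dose and the half-maximal concentration AC50 from the fitted curve is at or below a set limit; inconclusive = flat fit at 30 to 70% signal loss, or invalid fit; inactive = AC50 above the limit, or signal rises instead.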

The assay has as its system INS-1E cytokine-induced caspase-3/7, Caspase-Glo luminescence, 48 h. Kind of assay: inhibitors of cytokine-induced caspase-3/7 activity, dose response, orthogonal assay for beta-cell apoptosis protection project, INS-1E rat cells, luminescence (AID 463206).
The term AC50 denotes the concentration at which the activity in the assay is half-maximal. Turning to `CNC[C@H](CC1CCCCC1)NC[C@H](Cc1ccccc1)NCCC12CC3CC(CC(C3)C1)C2`, the AC50 was > 26 µM (inactive).

For the compound `O=[N+]([O-])/C=C/c1cn(Cc2ccc(F)cc2)c2ccccc12`, the AC50 is > 26 µM (inactive).

As to `CN1/C(=C\C(=S)Nc2ccccc2)C(C)(C)c2ccccc21`, the AC50 was > 26 µM (inactive).

With `CCOC(=O)C1(Cc2cccc(Cl)c2)CCCN(C(=O)c2ccc(COC)s2)C1` (stereo not drawn), the AC50 is > 26 µM (inactive).

As for `CCOc1ccc(-c2cc(C(=O)NCCCn3ccnc3)c3cc(Br)ccc3n2)cc1`, the AC50 was > 12 µM (inactive).

With `COc1ccc(OC)c(NC(=O)c2nc(S(=O)(=O)Cc3ccccc3)ncc2Cl)c1`, the AC50 is > 26 µM (inactive).

On to `COC(=O)c1ccc2c(=O)n(-c3ccccc3)c(SCN3C(=O)c4ccccc4C3=O)nc2c1`, for which the AC50 is > 26 µM (inactive).

For the compound `O=C(N/N=C/c1cc(Br)cc(Br)c1O)c1ccncc1`, the AC50 was > 26 µM (inactive).

Turning to `Oc1cccc(/C=N/NC(=S)Nc2cccnc2)c1O`, the AC50 is > 26 µM (inactive).

In the case of `O=C(N/N=C/c1cc([N+](=O)[O-])ccc1O)c1cccc2ccccc12`, the AC50 is > 26 µM (inactive).

For the compound `CC(C)COC(=O)c1ccc2c(c1O)C(=O)c1ccccc1C2=O`, the AC50 is > 26 µM (inactive).

In the case of `C=C[C@H](CC(C)C)N(Cc1ccccc1)S(=O)(=O)N(Cc1ccc(OC)cc1)[C@H](C=C)CC(C)C`, the AC50 is > 26 µM (inactive).

Regarding `CC(C)(C)OC(=O)N1CCC(CNC(=O)c2cccs2)CC1`, the AC50 is > 26 µM (inactive).

Consider `Cc1occc1C(=O)N/N=C/c1ccc2c(c1)OCO2`, for which the AC50 is > 26 µM (inactive).

Regarding `Cc1ccc(NC(=O)C2CCN(S(=O)(=O)c3ccc4c(c3)NC(=O)C(C)S4)CC2)cc1Cl` (stereo not drawn), the AC50 was > 26 µM (inactive).

On to `CCCCCCCCCn1ccc(=N)cc1`, for which the AC50 is > 26 µM (inactive).

Consider `Cc1ccc2c(c1)N(C)/C(=C/c1cccc[n+]1CCO)S2`, for which the AC50 is > 26 µM (inactive).

For the compound `C(/CCc1ccccc1)=N\Nc1nc2ccccc2[nH]1`, the AC50 is > 26 µM (inactive).

Take `CC1CCC(C(C)C)C(OC(=O)Cn2c(-c3ccc(F)cc3)[n+](C)c3ccccc32)C1` (stereo not drawn): the AC50 is > 26 µM (inactive).

As for `C=CCc1cccc(/C=N/NC(=O)c2ccc3nc[nH]c3c2)c1O`, the AC50 was > 26 µM (inactive).

On to `CCCC(=O)NC(c1ccccc1Cl)c1ccc2cccnc2c1O` (stereo not drawn), for which the AC50 was > 26 µM (inactive).

`CCC1(OC(=O)CN)C(=O)OCc2c1cc1n(c2=O)Cc2cc3ccccc3nc2-1` (stereo not drawn): the AC50 is 0.33 µM.

For `N#Cc1c(Cl)nsc1NC(=O)c1ccccc1`, the AC50 is > 26 µM (inactive).

Take `O=C(Nc1ccc(Cl)cc1)Nc1ccc(N2CCCC2)c(S(=O)(=O)Nc2ccccc2Cl)c1`: the AC50 was > 26 µM (inactive).

Turning to `CC(=O)c1c(C)[nH]c(C(=O)OCCCCN2C(=O)c3ccccc3C2=O)c1C`, the AC50 was > 26 µM (inactive).

Regarding `CCOC(=O)c1sc(NC(=O)Nc2cccc(Cl)c2)cc1C`, the AC50 is > 26 µM (inactive).

For `COc1ccccc1NC(=O)Cn1cc(C(=O)c2ccco2)c2ccccc21`, the AC50 is > 26 µM (inactive).

`CN(Cc1c(F)cccc1Cl)C(=O)c1cc2ccccc2o1`: the AC50 was > 26 µM (inactive).

For the compound `O=C(Nc1ccc(OCC(=O)N2CCC(Cc3ccccc3)CC2)cc1)c1ccco1`, the AC50 is > 26 µM (inactive).

Consider `COc1ccc2nc(N=Nc3ccc(O)c4ccccc34)sc2c1`, for which the AC50 is > 26 µM (inactive).

Take `O=C(NC1=C(Nc2ccc(Cl)cc2)C(=O)c2ccccc2C1=O)c1ccccc1`: the AC50 was > 26 µM (inactive).

`CCCC(=O)NC(c1ccc(Cl)cc1Cl)c1ccc2cccnc2c1O` (stereo not drawn): the AC50 is > 12 µM (inactive).

Turning to `CC(C)(C)n1ncc2c(=O)n(Cc3cccc(Cn4cnc5c(cnn5C(C)(C)C)c4=O)c3F)cnc21`, the AC50 was > 26 µM (inactive).

As for `CCCN(CCC)C(=O)c1cc([N+](=O)[O-])cc2c1-c1ccc([N+](=O)[O-])cc1C2=C(C#N)C#N`, the AC50 was > 26 µM (inactive).

In the case of `COc1cccc(/C=N/NC(=O)c2ccoc2C)c1O`, the AC50 is > 26 µM (inactive).

For `O=S(=O)(c1ccc2nc(Nc3ccccc3)ccc2c1)N1CCCCC1`, the AC50 is > 26 µM (inactive).

Take `CCOc1cc(C)c(S(=O)(=O)Nc2ccc3cn[nH]c3c2)cc1C`: the AC50 is > 12 µM (inactive).

Consider `COc1ccc(S(=O)(=O)/N=C2\C=C(Nc3ccc(O)cc3)C(=O)c3ccccc32)cc1`, for which the AC50 is > 26 µM (inactive).

As to `Cc1cc(-c2ccccc2)cc(C)[n+]1Cc1ccccc1`, the AC50 is > 26 µM (inactive).

Regarding `O=C(CSc1nc2ccccc2c(=O)n1-c1ccccc1)N1CCc2ccccc2C1`, the AC50 is > 26 µM (inactive).

In the case of `COc1cccc(/C=N/Nc2ncnc(Cl)c2N)c1O`, the AC50 was > 26 µM (inactive).

For the compound `Cc1cccc(NC(=O)c2ccc([N+](=O)[O-])s2)c1C`, the AC50 was > 26 µM (inactive).

Take `COc1cc(SC)ccc1C(=O)Nc1nc2ccccc2[nH]1`: the AC50 is > 26 µM (inactive).

With `Cc1cc(N/N=C/c2ccccc2[N+](=O)[O-])nc(-n2nc(C)cc2C)n1`, the AC50 was > 26 µM (inactive).

For the compound `O=[N+]([O-])c1ccc(N2CCN(C(=S)Nc3ccc(F)cc3)CC2)cc1`, the AC50 was > 26 µM (inactive).

In the case of `N#Cc1c(N2CCCCC2)nc(N2CCCCC2)c2c1CCN(Cc1ccccc1)C2`, the AC50 was > 26 µM (inactive).

Regarding `Cc1[nH]n(-c2ccccc2)c(=O)c1N=Nc1c(O)cc(S(=O)(=O)N(C)C)c2ccccc12`, the AC50 was > 26 µM (inactive).

Regarding `c1ccc(CNc2c3ccccc3nc3ccccc23)cc1`, the AC50 was 6.14 µM.

Consider `Cc1ccc(-n2ncc3c2CCCC3NC(=O)c2ocnc2C)cc1C` (stereo not drawn), for which the AC50 is > 26 µM (inactive).

In the case of `CCOc1ccc(OCc2ccc(C(=O)NN=Cc3ccc[nH]3)cc2)cc1`, the AC50 was > 26 µM (inactive).

With `FC(F)(F)c1ccc(CN2C[C@@H]3C(c4ccc(C(F)(F)F)cc4)C4(c5cccnc5)CC3(C4)[C@H]2c2ccccc2)cc1` (stereo partly drawn), the AC50 was > 26 µM (inactive).

`CCOC(=O)c1c(NC(=O)C[n+]2ccc(Cc3ccccc3)cc2)sc(C)c1C`: the AC50 is > 26 µM (inactive).

In the case of `C#CCOCCOCCOCCNc1nc(N2CCN(C(=O)CCCCCCCCCCNC(=O)[C@H]([C@@H](C)CC)n3cc(CCCCCN)nn3)CC2)nc(N2CCN(C(=O)CCCCCCCCCCNC(=O)[C@@H]([C@H](C)O)n3cc(C)nn3)CC2)n1`, the AC50 was > 26 µM (inactive).

For the compound `CCCC(=O)N(CCN(C(=O)CCC)c1ccccc1)c1ccccc1`, the AC50 is > 26 µM (inactive).

`O=C(NCc1nc2ccccc2[nH]1)C1=C[C@@H](C2CCCCC2)C[C@@H](OCc2ccc(CO)cc2)O1`: the AC50 was > 26 µM (inactive).

With `CCN(CC)S(=O)(=O)c1ccc(NC(=O)Nc2cccc(C(F)(F)F)c2)cc1`, the AC50 is > 26 µM (inactive).

In the case of `CN1CCN(C2=C(NS(=O)(=O)c3cccs3)C(=O)c3ccccc3C2=O)CC1`, the AC50 is > 26 µM (inactive).

As to `CC1(C(=O)OCC(=O)N2c3ccccc3Sc3ccccc32)CC1(Cl)Cl` (stereo not drawn), the AC50 is > 26 µM (inactive).

Consider `Oc1ccc(Nc2nc(-c3ccc4ccccc4c3)cs2)cc1`, for which the AC50 is > 26 µM (inactive).

For the compound `C/C(=N\NC(=O)c1cc(-c2cccnc2)nc2ccccc12)c1ccccc1O`, the AC50 is > 26 µM (inactive).

`O=[N+]([O-])c1ccc(Sc2cccc3cccnc23)c([N+](=O)[O-])c1`: the AC50 was > 26 µM (inactive).

With `CCN(CC)c1ccc(/C=N/NC(=O)CCC(=O)NCc2ccccc2)c(O)c1`, the AC50 was > 26 µM (inactive).

With `O=C1C(C2=NC(c3ccccn3)C3C(=O)N(c4ccc(OC(F)(F)F)cc4)C(=O)C23)=C(O)c2ccccc21` (stereo not drawn), the AC50 was > 26 µM (inactive).

For `COc1ccc(C(CCNCc2ccc(OC(C)C)cc2)c2ccccc2OC)cc1` (stereo not drawn), the AC50 is > 26 µM (inactive).

Regarding `COc1ccc(-c2cn(-c3ccc(Cl)cc3)c3[n+]2CCCCC3)cc1`, the AC50 was > 26 µM (inactive).

On to `O=C(c1cc2sccc2n1Cc1ccccc1)N1CCN(c2nc3ccccc3s2)CC1`, for which the AC50 was > 26 µM (inactive).

Regarding `CCOc1ccc(-c2c[n+]3c(n2-c2ccccc2)CCCCC3)cc1`, the AC50 is > 26 µM (inactive).

With `COC(=O)c1ccc2[nH]c3cccc(/C(=C/c4ccccc4)c4ccccc4)c3c2c1`, the AC50 was > 26 µM (inactive).

In the case of `CCOc1ccc(C(=O)N/N=C(\c2ccccc2)c2ccccn2)cc1`, the AC50 is > 26 µM (inactive).

Take `CCN1/C(=C/c2cccc[n+]2C)Sc2ccc(OC)cc21`: the AC50 is > 26 µM (inactive).

For `c1ccc(CNc2nc(-c3ccccn3)nc3ccccc23)cc1`, the AC50 was > 26 µM (inactive).

On to `COc1ccc(CNc2ncnc3sccc23)cc1`, for which the AC50 is > 26 µM (inactive).

As to `c1ccc(CNc2c(-c3cccc(SC4CCCCC4)c3)nc3ccccn23)cc1`, the AC50 is > 26 µM (inactive).

`CCN(CC)c1ccc(/C=N/NC(=S)NCc2ccccc2)c(O)c1`: the AC50 is > 26 µM (inactive).

On to `COc1ccc(C(=O)N/N=C(\C)c2ccccn2)cc1OC`, for which the AC50 was > 26 µM (inactive).

For the compound `CNC(=O)c1sc(N2N=C3/C(=C/c4ccccc4)CCCC3C2c2ccccc2)nc1C` (stereo not drawn), the AC50 was > 26 µM (inactive).

Turning to `COc1ccc(/C=N/Nc2cc(C)nc3ccc(Br)cc23)cc1`, the AC50 is > 26 µM (inactive).

In the case of `O=C(Nc1nc(-c2ccccn2)cs1)c1ccccc1-n1cnnn1`, the AC50 was > 26 µM (inactive).

Turning to `O=C(/C(N=Nc1cccc([N+](=O)[O-])c1)=C(/O)c1ccc(Br)cc1)C(F)(F)F`, the AC50 is > 26 µM (inactive).

For the compound `Cc1ccc(C[n+]2cccc(-c3ccccc3)c2)c(C)c1`, the AC50 is > 26 µM (inactive).

On to `CCc1ccc(-n2c(C)cc(/C=N/NC(=O)c3ccncc3)c2C)cc1`, for which the AC50 was > 26 µM (inactive).

As to `C=C1C(=O)O[C@H]2C[C@@H](C)[C@@H]3C=CC(=O)[C@@]3(C)C[C@H]12`, the AC50 was 2.83 µM.

`CCN(Cc1ccccc1)C(c1cccs1)c1nnnn1C1CCCCC1` (stereo not drawn): the AC50 is > 26 µM (inactive).

For the origin of these results see PubChem BioAssay AID463206 (Broad Institute, 2010).
